In US11352396B2, “Antimicrobial peptides and methods of using same” (Zoetis Services LLC, priority 2017, dated 2022):
≈ marks a conversion by molar mass, not a printed value. Residues, ends and D or L forms follow the SMILES beside them.

Experiments:
cRBC = type: cell-based, canine
Description: SEQ ID NO: 1 was selected for further research. Toxicity of SEQ ID NO: 1 to eukaryotic blood cells was compared to that of tachyplesin (SEQ ID NO: 13). A standard, well referenced red blood cell hemolysis assay was employed against multiple species to test the lysis potential of the peptides. Red blood cells (RBCs) were prepared and isolated by several centrifuge and wash steps to remove the plasma fraction. A dose titration (50 μM to 0.05 μM) of test peptides and control peptide melittin were spotted from 50 mM stocks in a 384 well plate. Prepared RBCs were incubated with peptide for one hour at 37° C. Percent hemolysis was measured by optical density at 405 nm and utilizing 1% TritonX100 as hundred percent effect (HPE) and phosphate buffer alone as zero percent effect (ZPE).

[1] = test system: MSSP (Methicillin-Susceptible Staphylococcus pseudintermedius); assay: MIC against selected strains of MSSP; type: cell-based; design: key to MIC MSSP 84658 / MIC MSSP 86000 / MIC MSSP 71990 / MIC MSSP 72036 / MIC MSSP 78032: MIC in μM; key to MIC MSSP 86001 / MIC MSSP 72191 / MIC MSSP 76986 / MIC MSSP 77378: MIC in μM (first well with no visible growth); MIC MSSP 49051 / MIC MSSP 81923 / MIC MSSP 84250 / Effect on MSSP 86000 / Effect on MSSP 72036 / Effect on MSSP 78032: unit not given beside the values; conditions: for MIC MSSP 49051: strain 49051, Table 3; for MIC MSSP 71990: strain 71990, Table 3; for MIC MSSP 72036: strain 72036, Table 3; for MIC MSSP 72191: strain 72191, Table 3; for MIC MSSP 76986: strain 76986, Table 3; for MIC MSSP 77378: strain 77378, Table 3; for MIC MSSP 78032: strain 78032, Table 3; for MIC MSSP 81923: strain 81923, Table 3; for MIC MSSP 84250: strain 84250, Table 3; for MIC MSSP 84658: strain 84658, Table 3; for MIC MSSP 86000: strain 86000, Table 3; for MIC MSSP 86001: strain 86001, Table 3
Description: (§1) Peptides according to SEQ ID NOs as listed in Table 1 were prepared by a commercial manufacturer (CS Bio, Menlo Park, Calif.) using solid phase synthesis. Antimicrobial activity was assessed by determining the Minimal Inhibitory Concentration (MIC) against S. aureus and E. coli. Briefly, Microbroth MICs were performed using CLSI methodology (VET01-S2). For S. aureus and E. coli ATCC strains, TSA with 5% lysed horse blood agar was used for overnight culturing at 37° C. ambient air. A 0.5 mM stock for each peptide was made with cell culture water, 0.01% acetic acid and serially diluted and spotted (10 μL) in a 96-well plate for in assay dose titration concentration of 50 μM to 0.05 μM. 0.5 McFarland Standard of each strain was diluted 1:250 in Mueller-Hinton Broth (MHB). 90 μL of culture suspension was then added upon drug in the 96-well plate for overnight incubation for 18-20 hours. The MIC was determined visually at the first well of no visible growth at the corresponding concentration.
(§2) Antimicrobial activity of the peptides listed in Table 2 against different strains of MSSP (Methicillin-Susceptible Staphylococcus pseudintermedius) and MRSP (Methicillin-Resistant Staphylococcus pseudintermedius) was further assessed. The results are in Tables 3 and 4, respectively.

[2] = test system: Canine-derived epithelial keratinocyte (CPEK) cells; type: cell-based
Description: Safety of the peptides listed in table 2 was determining by measuring cell viability. Canine-derived epithelial keratinocyte (CPEK) cells were propagated to determine cell viability in the presence of peptides. Cells were grown from a frozen stock in CnT-09-5 (with supplements) pre-warmed media in a T75 flask and incubated overnight at 37° C., 5% CO2. Cells were washed with phosphate buffer and replenished with pre-warmed CnT-05-9 media and repeated for several days until cells reached a density of 6.6×10^4 cells/mL. Cells were then transferred to a 384 well plate, allowed to settle and dosed with peptides and melittin control peptide (50 μM to 0.05 μM) and incubated overnight at 37° C., 5% CO2. 0.1% TritonX100 as (HPE) and phosphate buffer alone as (ZPE) were added to the plates to calculate percent effect once the assay was terminated with 10 μL CELLTITER-GLO® assay reagents for a luminescent readout.

[3] = test system: MRSP (Methicillin-Resistant Staphylococcus pseudintermedius); assay: MIC against selected strains of MRSP; type: cell-based; design: key to MIC MRSP 88493 / MIC MRSP 72035 / MIC MRSP 81926: MIC in μM; key to MIC MRSP 71994 / MIC MRSP 79882 / MIC MRSP 80729 / MIC MRSP 86002: MIC in μM (first well with no visible growth); key to MIC MRSP 72192 / MIC MRSP 76923 / MR 71994 / Mr 88493 / MR 72035 / MR 72192 / MR 76923 / MR 79882 / MR 80279 / MR 81926 / MR 86002 / MR 87665: MIC in μM (visual, first well with no growth); MIC MRSP 87655: unit not given beside the values; conditions: for MIC MRSP 71994: strain 71994, Table 4; for MIC MRSP 72035: strain 72035, Table 4; for MIC MRSP 72192: strain 72192, Table 4; for MIC MRSP 76923: strain 76923, Table 4; for MIC MRSP 79882: strain 79882, Table 4; for MIC MRSP 80729: strain 80729, Table 4; for MIC MRSP 81926: strain 81926, Table 4; for MIC MRSP 86002: strain 86002, Table 4; for MIC MRSP 87655: strain 87655, Table 4; for MIC MRSP 88493: strain 88493, Table 4
Description: as §1, §2

S. aureus ATCC 29213 = type: cell-based; conditions: ATCC 29213
Description: as §1

E. coli ATCC 25922 = type: cell-based; conditions: ATCC 25922
Description: as §1

| Compound | cRBC (50 μM) (cRBC) | MIC MSSP 49051 [1] | MIC MSSP 71990 [1] | MIC MSSP 72036 [1] | MIC MSSP 72191 [1] | MIC MSSP 76986 [1] | MIC MSSP 77378 [1] | MIC MSSP 78032 [1] | MIC MSSP 81923 [1] | MIC MSSP 84250 [1] | MIC MSSP 84658 [1] | MIC MSSP 86000 [1] | MIC MSSP 86001 [1] | CPEK (50 μM) [2] | MIC MRSP 71994 [3] | MIC MRSP 72035 [3] | MIC MRSP 72192 [3] | MIC MRSP 76923 [3] | MIC MRSP 79882 [3] | MIC MRSP 80729 [3] | also measured |
| --- | --- | --- | --- | --- | --- | --- | --- | --- | --- | --- | --- | --- | --- | --- | --- | --- | --- | --- | --- | --- | --- |
| 8 (KWCFRVCYRGACYRRCRD; Artificial Antimicrobial peptide) [compound 8] | 30.2 | 1.6 | 1.6 | 1.6 | 1.6 | 1.6 | 0.8 | 1.6 | 3.1 | 1.6 | 1.6 | 1.6 | 1.6 | 24.6 | 1.6 | 1.6 | 1.6 | 1.6 | 1.6 | 1.6 | MIC MRSP 81926 [3]: 1.6; MIC MRSP 86002 [3]: 1.6; MIC MRSP 87655 [3]: 1.6; MIC MRSP 88493 [3]: 1.6 |
| 9 (KWCFRVCYRGFCYRRCRD; Artificial Antimicrobial peptide) [compound 9] | 101.3 | 1.6 | 1.6 | 0.8 | 1.6 | 0.8 | 0.4 | 0.8 | 1.6 | 1.6 | 1.6 | 0.8 | 0.8 | 52.3 | 1.6 | 1.6 | 1.6 | 1.6 | 0.8 | 1.6 | MIC MRSP 81926 [3]: 1.6; MIC MRSP 86002 [3]: 1.6; MIC MRSP 87655 [3]: 1.6; MIC MRSP 88493 [3]: 1.6 |
| 10 (KWCFRVCYRGICYHRCRD; Artificial Antimicrobial peptide) [compound 10] | 101.1 | 1.6 | 1.6 | 1.6 | 1.6 | 1.6 | 0.8 | 1.6 | 1.6 | 1.6 | 1.6 | 1.6 | 1.6 | 31.5 | 1.6 | 1.6 | 1.6 | 1.6 | 0.8 | 1.6 | MIC MRSP 81926 [3]: 1.6; MIC MRSP 86002 [3]: 1.6; MIC MRSP 87655 [3]: 1.6; MIC MRSP 88493 [3]: 1.6 |
| 11 (KWCFRVCYRGICYRRCND; Artificial Antimicrobial peptide) [compound 11] | 57.8 | 0.8 | 1.6 | 0.8 | 0.8 | 0.8 | 0.4 | 0.8 | 1.6 | 0.8 | 0.8 | 0.4 | 0.8 | 22.0 | 1.6 | 1.6 | 0.8 | 0.8 | 0.8 | 0.8 | MIC MRSP 81926 [3]: 0.8; MIC MRSP 86002 [3]: 0.8; MIC MRSP 87655 [3]: 0.8; MIC MRSP 88493 [3]: 1.6 |
| 96 (KWCFRVCYGRICYRRCRD; Artificial Antimicrobial peptide) [compound 96] | 101.4 | 1.6 | 1.6 | 1.6 | 1.6 | 1.6 | 0.8 | 1.6 | 1.6 | 1.6 | 1.6 | 1.6 | 1.6 | 51.9 | 1.6 | 1.6 | 1.6 | 1.6 | 1.6 | 1.6 | MIC MRSP 81926 [3]: 1.6; MIC MRSP 86002 [3]: 1.6; MIC MRSP 87655 [3]: 1.6; MIC MRSP 88493 [3]: 1.6 |
| CC(C)[C@H](NC(=O)[C@H](CS)NC(=O)[C@H](Cc1ccccc1)NC(=O)CNC(=O)[C@H](CC(N)=O)NC(=O)[C@H](CCCCN)NC(=O)[C@H](CS)NC(=O)[C@H](CCCCN)NC(=O)[C@H](CS)NC(=O)CNC(=O)[C@H](CCCCN)NC(=O)[C@@H](N)CCCNC(=N)N)C(=O)N[C@@H](CS)C(=O)N[C@@H](CCCNC(=N)N)C(N)=O [SEQ ID NO: 65, RKGCKCKNGFCVCR-NH2] (H-RKGCKCKNGFCVCR-NH2; N-terminus assumed) |  |  |  |  |  |  |  |  |  |  |  |  |  |  |  |  |  |  |  |  | MIC S. aureus ATCC 29213 (S. aureus ATCC 29213): 50 µM (≈ 80.1 µg/mL); MIC E. coli ATCC 25922 (E. coli ATCC 25922): 6.25 µM (≈ 10 µg/mL) |
| CC(C)C[C@H](NC(=O)[C@H](CCCNC(=N)N)NC(=O)CNC(=O)CNC(=O)[C@@H](N)CCCNC(=N)N)C(=O)N[C@@H](CS)C(=O)N[C@@H](Cc1ccc(O)cc1)C(=O)N[C@@H](CS)C(=O)N[C@@H](CCCNC(=N)N)C(=O)N[C@@H](CCCNC(=N)N)C(=O)N[C@@H](CCCNC(=N)N)C(=O)N[C@@H](Cc1ccccc1)C(=O)N[C@@H](CS)C(=O)N[C@H](C(=O)N[C@@H](CS)C(=O)N[C@H](C(=O)NCC(=O)N[C@@H](CCCNC(=N)N)C(=O)O)C(C)C)C(C)C [SEQ ID NO: 92, RGGRLCYCRRRFCVCVGR] (H-RGGRLCYCRRRFCVCVGR-OH; N-terminus and C-terminus assumed) |  |  |  |  |  |  |  |  |  |  |  |  |  |  |  |  |  |  |  |  | MIC S. aureus ATCC 29213 (S. aureus ATCC 29213): 3.1 µM (≈ 6.7 µg/mL); MIC E. coli ATCC 25922 (E. coli ATCC 25922): 3.1 µM (≈ 6.7 µg/mL) |
